The test system of test [1] is beta-TC6 cells. Put plainly: Insulin HTRF assay (relative activity Ar) in beta-TC6 cells. It counts as cell-based, mouse. The conditions noted are these: Mus musculus, Beta-TC6, 4 h, insulin HTRF, supernatant of beta-TC6 cells, incubation with test compound at 37°C for 2, 3, 4h; read-out: Ar (relative activity). The method, boiled down: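 beta-TC6 cells (15k/well, seeded 24 or 48 h) washed, then exposed to compound in induction buffer (0.5% DMSO final) for 2, 3 or 4 h at 37°C.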
Background: TR-FRET usually uses a lanthanide donor and a delayed reading to cut background.

For test [2], the system named is C2C12 cells. Put plainly: 2-NBDG glucose uptake in C2C12 cells, flow cytometry. In kind it is cell-based. The conditions noted are these: 5 µM compound, 1 h, glucose free media with 100 µM 2-NBDG. How it is done:
To investigate the impact of the GRK5 inhibitors on glucose uptake, the fluorescent D-glucose analog 2-[N-(7-nitrobenz-2-oxa-1,3-diazol-4-yl)-amino]-2-deoxy-D-glucose (2-NBDG) was used. 2-NBDG is a fluorescently-labeled deoxyglucose analog that is commonly used to directly monitor glucose uptake by living cells. For 2-NBDG detection, cells were cultured for 1 h together with 5 µM of an inventive compound in glucose free media supplied with 100 µM 2-NBDG at 37 °C before collecting. Furthermore, as internal controls, samples of glucose free media, respectively glucose free media with test compound, were tested. Subsequently, cells were washed, trypsinized and harvested in ice-cold PBS before centrifuged at 1.6 x10^3 rpm at 4°C. Cells were analyzed by flow cytometry (FACS Calibur, BD Bioscience, respectively a BD Accuri® C6 Flow Cytometer). For evaluation, cells were gated using the side- and forward scatter SSC/FSC and quantified by excited at 488 nm and collected at […] (FL1). Table 4: 2-NBDG glucose uptake (%) by cells treated with the compounds of the present application

Test [3] concerns beta-TC6 cells. Put plainly: Insulin release by beta-TC6 cells in high glucose medium, rat/mouse insulin ELISA. In kind it is cell-based. The conditions noted are these: 2 h; for Insulin release by beta-TC6 cells at 5µM [%]: 5 µM compound, high glucose (4.5 g/L) DMEM, % increase in regard to the DMSO control (set at 0%); for effect on the insulin release by beta-TC6 cells compared with the positive control Sunitinib: 5 µM, high glucose (4.5 g/L). How it is done:
After having identified the most promising compounds acting as GRK5 inhibitors and determined the IC50 values, the effect of the compounds of the example 2 on the release of insulin by beta-TC6 was determined. […] Release of insulin was detected using a rat/mouse insulin ELISA.
To order to measure the insulin released by beta-TC6 insulinoma (mouse) cells upon treatment with the compounds of the present invention, beta-TC6 insulinoma (mouse)cells were washed and incubated for 2 h in high (4.5 g/L) or low (1.125 g/L) glucose media at 37 °C. After incubation, the supernatant of the beta-TC6 insulinoma cells was diluted 1:20. The insulin release was measured with rat/mouse insulin ELISA (Merck Millipore Darmstadt, Cat. # EZRMI-13K) by following the manufacture protocol. The enzyme activity of the horseradish peroxidase of the immobilized biotinylated antibodies was monitored spectrophotometrically by the increased absorbency at 490 nm, and corrected by the absorbency at 610 nm. […] Table 3: Insulin release by beta-TC6 cells treated with the compounds of the present invention (the % values are in regard to the DMSO control, thus 30% means an increase of insulin release of 30% in regard to the physiological conditions where the insulin release is set at 0%)
For orientation: An ELISA detects its analyte on a solid surface through an enzyme-linked reagent.

Test [4] deals with beta-TC6 cells. Put plainly: Glucose dependent insulin release by beta-TC6 cells in low glucose medium, rat/mouse insulin ELISA. It counts as cell-based. Details: unit not given here. The note with it: media with 1.125 mM (20 mg/dL) glucose, 2 h, compared with DMSO control.

Some results are limits rather than exact numbers.

In the case of `Cn1c(-c2cccnc2)cc2c(Nc3cccc(C(F)(F)F)c3)nccc21` [Compound 243, 1-methyl-2-(3-pyridyl)-N-[3-(trifluoromethyl)phenyl]pyrrolo[3,2-c]pyridin-4-amine], the Emax in test [1] is 0 to 30%. In addition, the “2-NBDG Glucose Uptake [%]” value in test [2] is 48.87%. Also, in test [3], the “Insulin release by beta-TC6 cells at 5µM [%]” value (“Insulin release … [%]” below) came to 142.26% and the “effect on the insulin release by beta-TC6 cells compared with the positive control Sunitinib” value is “better effect on the insulin release by beta-TC6 cells than the positive control Sunitinib”.

As to `COc1ccc(-c2nc3c(Nc4ccc(OC)c(OC)c4)nccc3[nH]2)cc1` [Compound 392, N-(3,4-dimethoxyphenyl)-2-(4-methoxyphenyl)-1H-imidazo[4,5-c]pyridin-4-amine], the Emax in test [1] is 50 to 100%. For the same molecule, the “Insulin release … [%]” value in test [3] was found to be 30.52%.

Take `COc1ccccc1-c1cc2c(Nc3ccc(SC)cc3)nccc2n1C` [Compound 305, 2-(2-methoxyphenyl)-1-methyl-N-(4-methylsulfanylphenyl)pyrrolo[3,2-c]pyridin-4-amine]: the Emax in test [1] lay in the range of 30 to 50%. Also, the “2-NBDG Glucose Uptake [%]” value in test [2] is given as 50.81%. Also, in test [3], the “Insulin release … [%]” value is listed as 20.24%.

For `CCN(CC)CCNC(=O)c1c(C)[nH]c(/C=C2\C(=O)Nc3ccc(F)cc32)c1C` [Sunitinib], in test [4], the “insulin release in low glucose media” value came to 0.77 ± 0.03.

For the molecule `COc1ccc(Nc2cc3c(cn2)cc(-c2cnn(C)c2)n3C)cc1` [Compound 137, N-(4-methoxyphenyl)-1-methyl-2-(1-methylpyrazol-4-yl)pyrrolo[3,2-c]pyridin-6-amine], the Emax in test [1] was 50 to 100%. The “2-NBDG Glucose Uptake [%]” value in test [2] is recorded as 69.73%.

For the molecule `COc1ccc(Nc2nccc3[nH]c(-c4cccc(OC)c4F)nc23)cc1` [Compound 475, 2-(2-fluoro-3-methoxy-phenyl)-N-(4-methoxyphenyl)-1H-imidazo[4,5-c]pyridin-4-amine], the Emax in test [1] was 50 to 100%. For the same molecule, the “Insulin release … [%]” value in test [3] is 48.72%.

Consider `CN1CCN(c2ccc(Nc3cc4[nH]c(-c5cccc(N)c5)cc4cn3)cc2)CC1` [Compound 3, 2-(3-aminophenyl)-N-[4-(4-methylpiperazin-1-yl)phenyl]-1H-pyrrolo[3,2-c]pyridin-6-amine], for which the Emax in test [1] is greater than 100%. Also, in test [2], the “2-NBDG Glucose Uptake [%]” value is recorded as 38.51%. In test [3], the “Insulin release … [%]” value is 15.43%.

Take `COCCNc1nc2cnc(Nc3ccc(NC(C)=O)cc3)cc2n1C` [Compound 646, N-[4-[[2-(2-methoxyethylamino)-1-methyl-imidazo[4,5-c]pyridin-6-yl]amino]phenyl]acetamide]: in test [1], the Emax fell in the range of 50 to 100%.

In the case of `Cc1cccc(Nc2cc3c(cn2)cc(-c2cccnc2)n3C)c1` [Compound 90, 1-methyl-N-(m-tolyl)-2-(3-pyridyl)pyrrolo[3,2-c]pyridin-6-amine], the Emax in test [1] fell in the range of 30 to 50%.

In the case of `Cn1c(NCCN2CCOCC2)nc2cnc(-c3cccc(F)c3)cc21` [Compound 769, 6-(3-fluorophenyl)-1-methyl-N-(2-morpholinoethyl)imidazo[4,5-c]pyridin-2-amine], the Emax in test [1] lay within 0 to 30%.

Regarding `COc1cc(Nc2cc3[nH]c(-c4ccccc4)cc3cn2)cc(OC)c1OC` [Compound 174, 2-phenyl-N-(3,4,5-trimethoxyphenyl)-1H-pyrrolo[3,2-c]pyridin-6-amine], the Emax in test [1] lay in the range of 50 to 100%.

As to `COc1ccc(Nc2cc3c(cn2)nc(NCc2ccccc2)n3C)cc1` [Compound 621, N2-benzyl-N6-(4-methoxyphenyl)-1-methyl-imidazo[4,5-c]pyridine-2,6-diamine], the Emax in test [1] was 50 to 100%.

For `CN1CCN(c2ccc(Nc3nccc4[nH]c(-c5cccc(F)c5)cc34)cc2)CC1` [Compound 201, 2-(3-fluorophenyl)-N-[4-(4-methylpiperazin-1-yl)phenyl]-1H-pyrrolo[3,2-c]pyridin-4-amine], the Emax in test [1] was 30 to 50%.

As to `NC(=O)c1ccc(Nc2cc3[nH]c(-c4cccc(F)c4)cc3cn2)cc1` [Compound 6, 4-[[2-(3-fluorophenyl)-1H-pyrrolo[3,2-c]pyridin-6-yl]amino]benzamide], the Emax in test [1] fell in the range of 50 to 100%. Besides, the “2-NBDG Glucose Uptake [%]” value in test [2] worked out at 45.35%. For the same molecule, in test [3], the “Insulin release … [%]” value came out at 81.25% and the “effect on the insulin release by beta-TC6 cells compared with the positive control Sunitinib” value is recorded as “level similar to Sunitinib”.

Consider `COc1ccc(Nc2cc3c(cn2)nc(-c2ccccc2)n3C)cn1` [Compound 704, N-(6-methoxy-3-pyridyl)-1-methyl-2-phenyl-imidazo[4,5-c]pyridin-6-amine], for which the Emax in test [1] was in the range of 30 to 50%.

Turning to `COc1ccccc1-c1cc2c(N3CCOCC3)nccc2[nH]1` [Compound 193, 4-[2-(2-methoxyphenyl)-1H-pyrrolo[3,2-c]pyridin-4-yl]morpholine], the Emax in test [1] was 50 to 100%.

For the molecule `COc1ccc(Nc2nccc3[nH]c(-c4ccccc4)nc23)cc1OC` [Compound 330, N-(3,4-dimethoxyphenyl)-2-phenyl-1H-imidazo[4,5-c]pyridin-4-amine], the Emax in test [1] was greater than 100%.

Turning to `CNc1nc2cnc(Nc3ccc(Oc4ccccc4)cc3)cc2n1C` [Compound 749, N2,1-dimethyl-N6-(4-phenoxyphenyl)imidazo[4,5-c]pyridine-2,6-diamine], the Emax in test [1] is 0 to 30%.

`Cn1cc(-c2cc3cnc(Nc4cccc(OC(F)(F)F)c4)cc3n2C)cn1` [Compound 146, 1-methyl-2-(1-methylpyrazol-4-yl)-N-[3-(trifluoromethoxy)phenyl]pyrrolo[3,2-c]pyridin-6-amine]: the Emax in test [1] fell in the range of 30 to 50%.

For `CN(C)C(=O)c1ccc(Nc2cc3[nH]c(-c4ccccn4)cc3cn2)cc1` [Compound 70, N,N-dimethyl-4-[[2-(2-pyridyl)-1H-pyrrolo[3,2-c]pyridin-6-yl]amino]benzamide], the Emax in test [1] is greater than 100%.

In the case of `COc1ccc(-c2nc3c(NCC4CC4)nccc3[nH]2)cc1` [Compound 400, N-(cyclopropylmethyl)-2-(4-methoxyphenyl)-1H-imidazo[4,5-c]pyridin-4-amine], the Emax in test [1] was in the range of 30 to 50%.
